Data set [1] is described as follows: Bioavailability after oral administration or intravenous injection in Wistar rats (free/total polyphenol in plasma, LC-MS/MS). Here is the method: (§1) The experimental results described below were obtained on the basis of a study carried out in healthy human beings and in healthy Wistar rats weighing approximately 250 grams.
An acclimation period was observed before beginning the experiments.
The rats received an administration per os of a volume of 5 ml of a solution of active product.
(§2) With regard to taking the blood samples from the rats and from the human beings, the blood was collected in tubes internally coated with EDTA and was then centrifuged at 3000 rpm (revolutions per minute) at ambient temperature for 45 min, and then for 15 min at a temperature of 4° C. The plasma was then collected and stored at −70° C. before analysis.
(§3) The analytical technique (LC-MS/MS for Liquid Chromatography coupled to tandem Mass Spectrometry) for measuring the active substance in the blood was based on the method described by Mata-Bilbao et al., published in 2007 in the Journal of Agricultural and Food Chemistry, volume 55, page 8857.
(§4) The free (+)-catechin was extracted from the plasma with a solution of phosphoric acid, EDTA and ascorbic acid and was then purified by SPE (solid phase extraction); in particular, it is an Oasis™ HLB extraction which is analyzed by LC-MS/MS. The quantification was carried out according to a standard calibration procedure with (+/−)-catechin-2,3,4-^13C3 as internal standard (SI).
The procedure is identical with regard to the extraction and the quantification of free quercetin or ECGC in the blood.
With regard to the extraction and quantification of the total (+)-catechin, the procedure is the same as that applied to the free (+)-catechin, with the exception of the fact that an additional step prior to the purification by SPE is carried out.
Each of the mixtures is then solubilized in water.
Each of the mixtures is solubilized in water.

In data set [2] the test system is cancer patients (lymphoplasmocytic lymphoma; clear cell renal carcinoma). Briefly: Treatment of patients suffering from cancer with 500 mg [C:Lys:HCl] complex salt tablet per day. The format is in vivo, human. The settings on record: for IgM level in the blood: lymphoplasmocytic lymphoma, 500 mg/day. Here is the method:
In the first patient a lymphoplasmocytic lymphoma (of Waldenström macroglobulinemia type) was detected during a post-operative blood test on day D0. The diagnosis is based on the electrophoretic detection of a monoclonal peak of immunoglobulins (IgM). This diagnosis was reconfirmed and the peak was assayed during a second analysis using the same detection by electrophoresis.
These immunoglobulins are found at a high concentration in the blood and in the urine. They therefore constitute real tumor markers. The assaying thereof gives an account of the number of sick cells and the extent of the disease and, consequently, makes it possible to monitor its progression under treatment.
Successive blood tests gave the following data for the IgM assay (in mg per 100 ml of plasma):
In the second patient, a left subclavicular cervical adenopathy was first of all detected on day D0. Next, 2 weeks later, a left renal adenocarcinoma was detected for this patient, which was followed by a nephrectomy of the left kidney 3 days after the detection of the adenocarcinoma in this kidney.
Thereafter, on day D0+3 months, a left cervical lymph node dissection is performed on the patient. This procedure was followed by a series of 15 radiotherapy sessions.
Starting from day D0+15 months (that is to say on day DT), the patient was orally administered a tablet of 500 mg of (+)-catechin hydrochlorolysinate per day.

Data set [3] concerns rat skin. Description: Total incorporation and incorporation into collagen of 3H-proline in the skin. The format is in vivo, Wistar rats. The settings on record: 100 mg/kg by gavage for 5 days; for level of incorporation into collagen (IC) of 3H-hydroxyproline in rat skin / level of total incorporation (IT) of 3H-hydroxyproline in rat skin: treated subgroup. Here is the method:
To do this, a study was carried out in vivo on a batch of 24 female Wistar rats weighing from 95 to 115 g, divided into two groups C and D, each of 12 rats. For each group, the radioactive 3H-hydroxyproline, the specific activity of which is 13.6 Ci/10^−3 mol, was administered to all the animals by intraperitoneal injection of proline-L-(5-3H) at a dose, relative to the weight of the individuals, of 1 mCi/kg, which represents an activity in terms of radioactive 3H-proline of 100 μCi/individual.
6 rats of each group received a treatment based on monomeric (+)-catechin by gavage in a proportion of 100 mg/kg for 5 days before sacrifice. […] The group C received monomeric (+)-catechin hydrochlorolysinate, while the group D received monomeric (+)-catechin ascorbolysinate.
In table 8, the level of incorporation is measured by the number of disintegrations of the radioactive 3H-hydroxyproline per minute (dpm) per mg of dry weight. The higher this number, the higher the concentration of 3H-hydroxyproline.
In this comparative example, a group E of 12 Wistar rats weighing from 95 to 115 g, in which radioactive 3H-hydroxyproline, the specific activity of which is 13.6 Ci/10^−3 mol, was administered to all the individuals by intraperitoneal injection of proline-L-(5-3H) at a dose, relative to the weight of the individuals, of 1 mCi/kg, which represents an activity in terms of radioactive 3H-proline of 100 ρCi/individual.
6 rats of each group received a treatment based on pure monomeric (+)-catechin by gavage in a proportion of 100 mg/kg for 5 days before sacrifice.
In table 9, the level of incorporation is measured by the number of disintegrations of the radioactive 3H-hydroxyproline per minute (dpm) per mg of dry weight. The higher this number, the higher the concentration of 3H-hydroxyproline.

Data set [4] in a line: Bioavailability after oral administration in human beings (free monomeric (+)-catechin in plasma, LC-MS/MS). As to conditions: in vivo, po. As for the experimental part:
as §1, §2, §3, §4
This complex salt is administered to a group A of 5 healthy volunteers.
This ct parameter makes it possible to calculate, from the data of table 1, the bioavailability of the (+)-catechin expressed in ng h/ml.

Data set [5] has as its system gastric ulcers in Mastomys. Briefly: Incidence of gastric ulcers and histamine level in the gastric mucosa in ovalbumin-sensitized Mastomys. The class given is in vivo. As to conditions: for histamine level (HL) in the gastric mucosa / number of animals exhibiting a gastric ulcer (NU): n = 12. As for the experimental part:
Mastomys in fact has a special system of cells which store histamine in the gastric mucosa; these cells can give rise to carcinoid tumors.
In this example, a sample of n=48 Mastomys are sensitized a first time by intraperitoneal injection of 3 μg of ovalbumin dissolved in 0.2 ml of saline solution containing 1 mg of aluminum hydroxide the ovalbumin which brings about anti-immunoglobulin E(IgE) and G(IgG) antibodies. After 7 days, a second injection of 1 mg of ovalbumin in 0.01 ml of saline solution is given in the gastric mucosa at the level of the corpus of the anesthetized animals, which causes an ulcerated lesion at the actual site of the injection.
The 48 rats are divided up into three groups: one of 24 and two of 12 individuals. The first group of 24 individuals (G1) received a placebo (concentrated NaCl solution at 0.15 M).
The histamine level is measured for the G1, G2 and G3 groups on the basis of a sample of n=12 individuals.

Setting [6] is: free catechin, per os, dose equivalent to 100 mg/kg catechin, 5 rats.
Setting [7] is: oral administration versus placebo.

`Cl.Cl.Cl.Cl.Cl.NCCCCC(N)C(=O)O.NCCCCC(N)C(=O)O.NCCCCC(N)C(=O)O.NCCCCC(N)C(=O)O.NCCCCC(N)C(=O)O.Oc1cc(O)c2c(c1)O[C@H](c1ccc(O)c(O)c1)[C@@H](O)C2.Oc1cc(O)c2c(c1)O[C@H](c1ccc(O)c(O)c1)[C@@H](O)C2` [1:2.5:2.5]: in data set [1] (rat, in vivo, 25 mg/kg), the “ct, reported value on the curve in FIG. 5” value (“ct, reported value” for short) is 105 k ng min/ml.

On to `Cl.Cl.Cl.NCCCCC(N)C(=O)O.NCCCCC(N)C(=O)O.NCCCCC(N)C(=O)O.Oc1cc(O)c2c(c1)O[C@H](c1ccc(O)c(O)c1)[C@@H](O)C2` [1:3:3], for which the “ct, calculated value” in data set [1] (rat, in vivo, 25 mg/kg) was 38 k ng min/ml.

Take `Cl.Cl.Cl.Cl.Cl.NCCCCC(N)C(=O)O.NCCCCC(N)C(=O)O.NCCCCC(N)C(=O)O.NCCCCC(N)C(=O)O.NCCCCC(N)C(=O)O.Oc1cc(O)c2c(c1)O[C@H](c1ccc(O)c(O)c1)[C@@H](O)C2` [1:5:5]: the “ct, calculated value” in data set [1] (rat, in vivo, 25 mg/kg) is 26 k ng min/ml.

As to `Cl.Cl.Cl.NCCCCC(N)C(=O)O.NCCCCC(N)C(=O)O.NCCCCC(N)C(=O)O.Oc1cc(O)c2c(c1)O[C@H](c1ccc(O)c(O)c1)[C@@H](O)C2.Oc1cc(O)c2c(c1)O[C@H](c1ccc(O)c(O)c1)[C@@H](O)C2` [C:Lys:HCl/1:1.5:1.5], the “ct, reported value” value in data set [1] (rat, in vivo, 25 mg/kg) stood at 142 k ng min/ml.

As to `O=c1c(O)c(-c2ccc(O)c(O)c2)oc2cc(O)cc(O)c12` [QP, quercetin, reference compound], the “Δct^q (difference of ct to QP)” value in data set [1] (Wistar, rat, in vivo, 25 mg/kg) stood at 0%.

In the case of `N=C(N)NCCCC(N)C(=O)O.Oc1cc(O)c2c(c1)O[C@H](c1ccc(O)c(O)c1)[C@@H](O)C2` [[C:Arg/1:1], Complex of Monomeric (+)-Catechin and of Arginine in a Molar Equivalence Ratio of 1:1], the “Δct (difference of ct to CP)” value in data set [1] (free catechin, per os, dose equivalent to 100 mg/kg catechin) is “+21%”. In addition, in data set [1] (setting [6]), the “T (max)” value was found to be 1 h.

Regarding `NCCCCC(N)C(=O)O.Oc1cc(O)c2c(c1)O[C@H](c1ccc(O)c(O)c1)[C@@H](O)C2` [[C:Lys/1:1], Complex of Monomeric (+)-Catechin and of Lysine in a Molar Equivalence Ratio of 1:1], in data set [1] (setting [6]), the “T (max)” value is 1 h.

As for `NCCCCC(N)C(=O)O.NCCCCC(N)C(=O)O.Oc1cc(O)c2c(c1)O[C@H](c1ccc(O)c(O)c1)[C@@H](O)C2` [[C:Lys/1:2], Complex of Monomeric (+)-Catechin and of Lysine in a Molar Equivalence Ratio of 1:2], the “T (max)” value in data set [1] (setting [6]) was determined as 2 h; in data set [1] (free catechin, per os, equivalent to 25 mg/kg, 3 rats (comparative example 4)), 1 h; in data set [1] (total (+)-catechin, per os, equivalent to 25 mg/kg, 3 rats), 1 h. In addition, the “Δct (difference of ct to CP)” value in data set [1] (free catechin, per os, equivalent to 25 mg/kg (comparative example 4)) is reported as “+17%”; in data set [1] (total (+)-catechin, per os, equivalent to 25 mg/kg), “+24%”.

For the compound `Cl.Cl.NCCCCC(N)C(=O)O.NCCCCC(N)C(=O)O.Oc1cc(O)c2c(c1)O[C@H](c1ccc(O)c(O)c1)[C@@H](O)C2` [[C:Lys:HCl/1:2:2]], in data set [1] (rat, in vivo, iv, 25 mg/kg), the “total plasma concentration (ct) of free monomeric (+)-catechin” value is given as 87 970 ng min/ml. The “total plasma concentration (ct) of total monomeric (+)-catechin” value is on record as 277 040 ng min/ml in data set [1] (rat, in vivo, iv, 25 mg/kg) and 479 585 ng min/ml in data set [1] (rat, in vivo, po, 25 mg/kg).

Take `Cl.Cl.NCCCCC(N)C(=O)O.NCCCCC(N)C(=O)O.O=c1c(O)c(-c2ccc(O)c(O)c2)oc2cc(O)cc(O)c12` [[Q:Lys:HCl/1:2:2], reference compound]: the “Δct^q (difference of ct to QP)” value in data set [1] (rat, in vivo, 25 mg/kg) is on record as “+18%”.

With `Cl.NCCCCC(N)C(=O)O.Oc1cc(O)c2c(c1)O[C@H](c1ccc(O)c(O)c1)[C@@H](O)C2` [monomeric (+)-catechin hydrochlorolysinate], in data set [2] (first patient, DT + 4 months), the “IgM level in the blood” value is on record as 2417 mg/100 ml. The “IgM level in the blood” value in data set [2] (first patient, DT + 9 months) is recorded as 2410 mg/100 ml. The “IgM level in the blood” value in data set [2] (first patient, DT + 15 months) is given as 2412 mg/100 ml. For the same compound, the “clinical course of IgM level under treatment” value in data set [2] (first patient, taken for a year and a half) is given as “stabilization below the maximum detected on day DT”. For the same compound, the clinical outcome in data set [2] (second patient, clear cell renal carcinoma, 500 mg/day from DT) is “stabilized the patient's condition”. Also, in data set [3], the “increase in the level of incorporation versus control” value was “+15%”, the “level of incorporation into collagen (IC) of 3H-hydroxyproline in rat skin” value came out at 1343 ± 48 dpm/mg and the “level of total incorporation (IT) of 3H-hydroxyproline in rat skin” value was 6248 ± 124 dpm/mg. For the same compound, in data set [4], the “T (max)” value is on record as 0.5 h; the “increase in c (max) compared with pure monomeric (+)-catechin” value is on record as “+103%”; the “increase in speed of passage into blood, T (max), compared with pure monomeric (+)-catechin” value is on record as “+166%”. For the same compound, the “ct, reported value” value in data set [1] (rat, in vivo, 25 mg/kg) was found to be 127 k ng min/ml. For the same compound, in data set [5] (G2, per os 2×300 mg a day), the “histamine level (HL) in the gastric mucosa” value is 37.91 ± 3.73 10^−6 mg/kg of protein and the “number of animals exhibiting a gastric ulcer (NU)” value is 5. In data set [5] (G3, intraperitoneally 100 mg), the “histamine level (HL) in the gastric mucosa” value is 34.98 ± 3.52 10^−6 mg/kg of protein and the “number of animals exhibiting a gastric ulcer (NU)” value is given as 6. Moreover, in data set [5] (setting [7]), the “decrease in the histamine level in the gastric mucosa” value is −18% and the “decrease in the number of animals exhibiting a gastric ulcer” value was −72%.

Regarding `O=C(O[C@@H]1Cc2c(O)cc(O)cc2O[C@@H]1c1cc(O)c(O)c(O)c1)c1cc(O)c(O)c(O)c1` [pure EGCG, epigallocatechin gallate, reference compound], the “plasma levels measured (below reliable limits of detection)” value in data set [1] (free EGCG, per os, equivalent to 25 mg/kg polyphenol) is reported as “below 250 ng/ml”.

On to monomeric (+)-catechin ascorbolysinate, for which, in data set [3], the “increase in the level of incorporation versus control” value is “+14%”, the “level of incorporation into collagen (IC) of 3H-hydroxyproline in rat skin” value was 1117 ± 49 dpm/mg and the “level of total incorporation (IT) of 3H-hydroxyproline in rat skin” value was 5112 ± 259 dpm/mg.

Source of the values: patent publication US20160095923A1, “ORAL COMPOSITION COMPRISNG (+)-CATECHIN” (VALORE, priority 2013, published 2016).
